From ChEMBL document CHEMBL1153888, “Targeted intracellular protein degradation induced by a small molecule: En route to chemical proteomics” (Bioorg Med Chem Lett, 2008) come the findings set out here.

SMILES strings stand for the structures. Activity calls are given as the source filed them. No cut-off for these calls is given here.

In assay [1] the test system is HeLa. Briefly: Induction of intracellular protein degradation in human HeLa cells expressing androgen receptor assessed as decrease in total AR protein levels at 10 uM after 7 hrs by Western blot. Format: functional, cell-based. A general note: Immunoblotting shows a protein as a band on a membrane.
In assay [2] the test system is HeLa. Briefly: Inhibition of intracellular protein degradation in human HeLa cells expressing androgen receptor assessed as effect on total AR protein levels at 10 uM after 7 hrs by Western blot in presence of epoxomicin. It is filed as functional, cell-based.
For assay [3], the target named is E3 ubiquitin-protein ligase Mdm2 (Homo sapiens, UniProt Q00987). Nature of the assay: Binding affinity to MDM2.
E3 ubiquitin-protein ligase Mdm2, sequence (Q00987 whole entry): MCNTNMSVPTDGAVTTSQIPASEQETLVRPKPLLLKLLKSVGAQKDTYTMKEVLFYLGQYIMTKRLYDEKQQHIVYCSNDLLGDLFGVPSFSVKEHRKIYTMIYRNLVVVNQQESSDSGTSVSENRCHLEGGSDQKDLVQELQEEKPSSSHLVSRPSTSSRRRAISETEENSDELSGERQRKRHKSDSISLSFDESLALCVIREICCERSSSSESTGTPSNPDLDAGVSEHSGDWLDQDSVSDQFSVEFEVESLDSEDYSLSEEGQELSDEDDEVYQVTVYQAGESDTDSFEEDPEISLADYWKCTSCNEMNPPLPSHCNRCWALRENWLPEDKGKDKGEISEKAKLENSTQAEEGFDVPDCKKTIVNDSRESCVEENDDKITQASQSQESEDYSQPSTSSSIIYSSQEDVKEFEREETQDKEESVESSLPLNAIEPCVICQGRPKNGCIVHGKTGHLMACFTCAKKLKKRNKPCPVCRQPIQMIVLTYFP

Turning to `COc1ccc(C2=N[C@H](c3ccc(Cl)cc3)[C@H](c3ccc(Cl)cc3)N2C(=O)N2CCN(CC(=O)NCCOCCOCCOCC(=O)Nc3ccc(OC[C@](C)(O)C(=O)Nc4ccc([N+](=O)[O-])c(C(F)(F)F)c4)cc3)C(=O)C2)c(OC(C)C)c1`, the result in the assay with HeLa [1] and with HeLa [2] was Active.

As usually defined, the IC50 is the concentration needed to halve the response being measured. Low values mean greater potency, high ones weaker potency. `COc1ccc(C2=NC(c3ccc(Cl)cc3)C(c3ccc(Cl)cc3)N2)c(OC(C)C)c1` (stereo not drawn) returned an IC50 in assay [3] of 0.09 µM.
